Holding throughout (experiment): In vitro antibacterial activity test (broth microdilution)
Type in all cases: cell-based
A general note: Broth dilution looks for growth in wells or tubes with falling amounts of substance.

Assay [1] concerns A. calcoaceticus ATCC15473. Conditions: Acinetobacter calcoaceticus. The essentials: (§1)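 MIC90 was determined by CLSI broth microdilution against clinical isolates, as the lowest concentration inhibiting visible growth of 90% of organisms relative to untreated control. Final compound concentrations spanned 0.0626–128 ug/mL with 2.5% (V/V) DMSO.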
A further assay relates to K. pneumoniae β14. As to conditions: Klebsiella pneumoniae. The essentials: as §1
Another assay concerns P. aeruginosa 6065Y. As to conditions: Pseudomonas aeruginosa. The essentials: as §1
A further assay deals with E. cloacae β19. Conditions: Enterobacter cloacae. The essentials:
as §1

In another assay the test system is K. pneumoniae 2011E. Conditions: Klebsiella pneumoniae, 2011E. In a few lines: as §1
The test system of another assay is M. catarrhalis 2524. Conditions: Moraxella catarrhalis. The essentials:
as §1

The subject of a further assay is E. coli AG100. As to conditions: Escherichia coli. The essentials: as §1
For a further assay, the system named is P. aeruginosa 37. As to conditions: Pseudomonas aeruginosa, 37, P. aeruginosa 37. In a few lines:
as §1

The test system of a further assay is K. pneumoniae β11. As to conditions: Klebsiella pneumoniae. The essentials:
as §1

The test system of a further assay is K. pneumoniae β10. As to conditions: Klebsiella pneumoniae. In a few lines:
as §1

A further assay concerns A. baumannii 49. The essentials: as §1
The test system of a further assay is P. aeruginosa 1912E. Conditions: Pseudomonas aeruginosa, 1912E. In a few lines: as §1
The test system of a further assay is P. aeruginosa 43. Conditions: Pseudomonas aeruginosa. The essentials: as §1
The subject of another assay is K. pneumoniae β13. As to conditions: Klebsiella pneumoniae. In a few lines: as §1
A further assay deals with E. coli β4. Conditions: Escherichia coli. The essentials:
as §1

The next assay has as its system K. pneumoniae β9. As to conditions: Klebsiella pneumoniae. In a few lines: as §1
A further assay concerns A. baumannii 46. In a few lines:
as §1

The next assay deals with P. aeruginosa 40. In a few lines:
as §1

Another assay has as its system A. baumannii 52. Conditions: Acinetobacter baumannii. In a few lines: as §1
Where [2] appears, read: A. calcoaceticus ATCC15473, read-out: MIC90.
[3] abbreviates: K. pneumoniae 2011E, read-out: MIC90.
Where [4] appears, read: M. catarrhalis 2524, read-out: MIC90.
Where [5] appears, read: AG100, E. coli AG100, read-out: MIC90.
The mark [6] stands for this setting: K. pneumoniae β11, read-out: MIC90.
The mark [7] stands for this setting: K. pneumoniae β10, read-out: MIC90.
[8] abbreviates: Acinetobacter baumannii, A. baumannii 49, read-out: MIC90.
[9] abbreviates: P. aeruginosa 43, read-out: MIC90.
The mark [10] stands for this setting: K. pneumoniae β13, read-out: MIC90.
[11] abbreviates: K. pneumoniae β9, read-out: MIC90.
The mark [12] stands for this setting: Acinetobacter baumannii, A. baumannii 46, read-out: MIC90.
Where [13] appears, read: Pseudomonas aeruginosa, 40, P. aeruginosa 40, read-out: MIC90.
Setting [14] is: A. baumannii 52, read-out: MIC90.

For 4 compounds, MIC90 results are on record in patent publication US9630977B2, “Cephalosporin derivatives and pharmaceutical compositions thereof” (Legochem Biosciences, Inc., priority 2011, dated 2017).

The structures appear in SMILES notation. ≈ marks a conversion by molar mass, not a printed value. Read-outs that look alike come from different tables or passages of the source.

`C[C@H](O/N=C(\C(=O)N[C@@H]1C(=O)N2C(C(=O)[O-])=C(C[n+]3cnc(NCCN)c(NCCNC(=O)c4cc(=O)c(O)cn4O)c3)CSC12)c1nc(N)sc1Cl)C(=O)O` (stereo partly shown) [Compound 21]: the MIC90 in [1] (ATCC15473, A. calcoaceticus ATCC15473) was 1 µg/mL (≈ 1.19 µM); with K. pneumoniae β14, 16 µg/mL (≈ 19.1 µM); with P. aeruginosa 6065Y (6065Y), 4 µg/mL (≈ 4.78 µM); in the assay with E. cloacae β19, 16 µg/mL (≈ 19.1 µM); against K. pneumoniae 2011E, 4 µg/mL (≈ 4.78 µM); against M. catarrhalis 2524 (2524) it was 0.125 µg/mL (≈ 0.149 µM). Further, the MIC90 in the assay on E. coli AG100 (AG100) came out at 0.5 µg/mL (≈ 0.597 µM); in the assay on P. aeruginosa 37 it was 32 µg/mL (≈ 38.2 µM); with K. pneumoniae β11, 8 µg/mL (≈ 9.56 µM); against K. pneumoniae β10, 2 µg/mL (≈ 2.39 µM); in the assay with A. baumannii 49 (Acinetobacter baumannii, 49, A. baumannii 49), 8 µg/mL (≈ 9.56 µM); against P. aeruginosa 1912E it was 4 µg/mL (≈ 4.78 µM). The MIC90 with P. aeruginosa 43 (43) turned out to be 2 µg/mL (≈ 2.39 µM); against K. pneumoniae β13, 2 µg/mL (≈ 2.39 µM); against E. coli β4, 4 µg/mL (≈ 4.78 µM); in the assay on K. pneumoniae β9, 2 µg/mL (≈ 2.39 µM); against A. baumannii 46 (Acinetobacter baumannii, 46, A. baumannii 46), 16 µg/mL (≈ 19.1 µM); in the assay on P. aeruginosa 40 (Pseudomonas aeruginosa, 40), 8 µg/mL (≈ 9.56 µM). Further, the MIC90 against A. baumannii 52 (52) amounted to 2 µg/mL (≈ 2.39 µM).

`CC(C)(O/N=C(\C(=O)N[C@@H]1C(=O)N2C(C(=O)[O-])=C(C[n+]3cnc(N)c(NC(=O)c4cc(=O)c(O)cn4O)c3)CSC12)c1nc(N)sc1Cl)C(=O)O` (stereo partly shown) [Compound 22]: the MIC90 in [1] (setting [2]) was 0.5 µg/mL (≈ 0.653 µM); in the assay with K. pneumoniae β14 (read-out: MIC90) it was 128 µg/mL (≈ 167 µM); in the assay on P. aeruginosa 6065Y (read-out: MIC90), 2 µg/mL (≈ 2.61 µM); in the assay with E. cloacae β19 (read-out: MIC90) it was 32 µg/mL (≈ 41.8 µM); in the assay on K. pneumoniae 2011E (setting [3]), 16 µg/mL (≈ 20.9 µM); in the assay with M. catarrhalis 2524 (setting [4]), 0.5 µg/mL (≈ 0.653 µM). Also, the MIC90 in the assay with E. coli AG100 (setting [5]) was found to be 2 µg/mL (≈ 2.61 µM); in the assay with P. aeruginosa 37 (read-out: MIC90) it was 1 µg/mL (≈ 1.31 µM); with K. pneumoniae β11 (setting [6]), 64 µg/mL (≈ 83.6 µM); in the assay with K. pneumoniae β10 (setting [7]), 1 µg/mL (≈ 1.31 µM); with A. baumannii 49 (setting [8]) it was 16 µg/mL (≈ 20.9 µM); in the assay with P. aeruginosa 1912E (read-out: MIC90), 2 µg/mL (≈ 2.61 µM). In addition, the MIC90 with P. aeruginosa 43 (setting [9]) worked out at 0.5 µg/mL (≈ 0.653 µM); in the assay on K. pneumoniae β13 (setting [10]), 2 µg/mL (≈ 2.61 µM); in the assay with E. coli β4 (read-out: MIC90), 32 µg/mL (≈ 41.8 µM); with K. pneumoniae β9 (setting [11]), 8 µg/mL (≈ 10.5 µM); in the assay on A. baumannii 46 (setting [12]), 128 µg/mL (≈ 167 µM); in the assay with P. aeruginosa 40 (setting [13]), 2 µg/mL (≈ 2.61 µM). Moreover, the MIC90 in the assay on A. baumannii 52 (setting [14]) was determined as 2 µg/mL (≈ 2.61 µM).

In the case of `CC(C)(O/N=C(\C(=O)N[C@@H]1C(=O)N2C(C(=O)[O-])=C(/C=C/C[n+]3cnc(N)c(NCCCCNC(=O)c4cc(=O)c(O)cn4O)c3)CSC12)c1csc(N)n1)C(=O)O` (stereo partly shown) [Compound 23], the MIC90 is 1 µg/mL (≈ 1.21 µM) in assay [1] (setting [2]); 4 µg/mL (≈ 4.83 µM) in the assay with K. pneumoniae β14 (read-out: MIC90); 2 µg/mL (≈ 2.42 µM) with P. aeruginosa 6065Y (read-out: MIC90); 2 µg/mL (≈ 2.42 µM) in the assay on E. cloacae β19 (read-out: MIC90); 1 µg/mL (≈ 1.21 µM) with K. pneumoniae 2011E (setting [3]); 0.25 µg/mL (≈ 0.302 µM) with M. catarrhalis 2524 (setting [4]). Besides, the MIC90 in the assay with E. coli AG100 (setting [5]) is below 0.0625 µg/mL; in the assay on P. aeruginosa 37 (read-out: MIC90) it was 0.25 µg/mL (≈ 0.302 µM); in the assay on K. pneumoniae β11 (setting [6]), 64 µg/mL (≈ 77.3 µM); with K. pneumoniae β10 (setting [7]) it was below 0.0625 µg/mL; in the assay with A. baumannii 49 (setting [8]) it was above 128 µg/mL; in the assay on P. aeruginosa 1912E (read-out: MIC90), 1 µg/mL (≈ 1.21 µM). For the same compound, the MIC90 in the assay on P. aeruginosa 43 (setting [9]) is 1 µg/mL (≈ 1.21 µM); with K. pneumoniae β13 (setting [10]) it was below 0.0625 µg/mL; with E. coli β4 (read-out: MIC90), below 0.0625 µg/mL; with K. pneumoniae β9 (setting [11]) it was below 0.0625 µg/mL; in the assay with A. baumannii 46 (setting [12]), 4 µg/mL (≈ 4.83 µM); in the assay with P. aeruginosa 40 (setting [13]), 0.5 µg/mL (≈ 0.604 µM). The MIC90 with A. baumannii 52 (setting [14]) was above 128 µg/mL.

Consider `C[C@H](O/N=C(\C(=O)N[C@@H]1C(=O)N2C(C(=O)[O-])=C(/C=C/C[n+]3cnc(N)c(NCCNC(=O)c4cc(=O)c(O)cn4O)c3)CSC12)c1nc(N)sc1Cl)C(=O)O` (stereo partly shown) [Compound 24], for which the MIC90 in assay [1] (setting [2]) was 0.5 µg/mL (≈ 0.61 µM); in the assay on K. pneumoniae β14 (read-out: MIC90), 4 µg/mL (≈ 4.88 µM); in the assay with P. aeruginosa 6065Y (read-out: MIC90), 0.5 µg/mL (≈ 0.61 µM); in the assay on E. cloacae β19 (read-out: MIC90), 0.5 µg/mL (≈ 0.61 µM); with K. pneumoniae 2011E (setting [3]), 0.5 µg/mL (≈ 0.61 µM); in the assay with M. catarrhalis 2524 (setting [4]) it was below 0.0625 µg/mL. In addition, the MIC90 with E. coli AG100 (setting [5]) is below 0.0625 µg/mL; with P. aeruginosa 37 (read-out: MIC90), below 0.0625 µg/mL; with K. pneumoniae β11 (setting [6]), 2 µg/mL (≈ 2.44 µM); in the assay on K. pneumoniae β10 (setting [7]) it was below 0.0625 µg/mL; in the assay with A. baumannii 49 (setting [8]), 32 µg/mL (≈ 39 µM); in the assay on P. aeruginosa 1912E (read-out: MIC90), 0.25 µg/mL (≈ 0.305 µM). The MIC90 in the assay on P. aeruginosa 43 (setting [9]) was 0.25 µg/mL (≈ 0.305 µM); with K. pneumoniae β13 (setting [10]), 0.125 µg/mL (≈ 0.152 µM); with E. coli β4 (read-out: MIC90), below 0.0625 µg/mL; with K. pneumoniae β9 (setting [11]) it was below 0.0625 µg/mL; in the assay with A. baumannii 46 (setting [12]), 2 µg/mL (≈ 2.44 µM); in the assay on P. aeruginosa 40 (setting [13]), 0.25 µg/mL (≈ 0.305 µM). Moreover, the MIC90 in the assay with A. baumannii 52 (setting [14]) was determined as 16 µg/mL (≈ 19.5 µM).

In general, MIC90 refers to an inhibitory concentration at the 90% level, which refers to growth in some studies and to a panel of isolates in others.
